Source: the NIST ThermoML archive (doi:10.1016/j.jct.2005.06.017)

Test: mn = molality of the nth substance listed, in mol/kg
Conditions: 350 kPa, Liquid, Extra sensitive DSC

NCC(=O)O [2-aminoacetic acid] + O
apparent molar heat capacity [J/K/mol]
Conditions	m1 = 0.015	m1 = 0.03	m1 = 0.0503	m1 = 0.0804	m1 = 0.125	m1 = 0.2493	m1 = 0.5056
278.15 K	8	–	–	–	–	–	4.4
283.15 K	25	1	–	12.3	10.3	12.4	18.7
288.15 K	38	14	11	25.5	23.6	25.3	30.5
293.15 K	50	25	24	36.5	34.1	35.4	40.4
298.15 K	59	33	34.8	45.4	42.9	44	48.3
303.15 K	67	41	43.7	52.8	50.1	51.1	55.2
308.15 K	73	48	51	59.1	55.8	57	60.9
313.15 K	78	54	57.3	64.5	61.3	62.4	66
318.15 K	83	59	62.2	68.8	65.7	66.8	70.2
323.15 K	86	63	66.8	72.7	69.3	70.6	73.9
328.15 K	90	67	70.8	76	72.6	73.8	77.1
333.15 K	92	70	74.5	79	75.4	76.7	80
338.15 K	95	73	78	81.6	77.9	79.2	82.5
343.15 K	97	75	80.6	83.6	80	81.3	84.6
348.15 K	99	77	83.1	85.6	81.8	83.1	86.4
353.15 K	101	79	85.3	87.3	83.4	84.8	88.1
358.15 K	102	81	87.1	88.9	84.8	86.2	89.5
363.15 K	103	82	88.9	90.2	86	87.3	90.7
368.15 K	104	83	90.2	91	86.9	88.3	91.6
373.15 K	104	83	91.1	91.7	87.5	89	92.4
378.15 K	104	83	92.1	92.3	87.9	89.4	92.9
383.15 K	103.9	84	93.3	92.9	88.2	89.9	93.3
388.15 K	103.5	84	94.5	93.1	88.2	90	93.6
393.15 K	101.4	84	95.6	92.9	87.7	89.7	93.6
